Test results as given in patent US20220081422A1 (Janssen Biotech, Inc., priority 2019, published 2022).

Experiments:
[1] = tested on: MOLM-13 cells; assay: MOLM-13 cellular assay (CellTiter-Glo cell viability); type: cell-based; details: 72 hours exposure, cell viability by CellTiter-Glo
Protocol: In Vitro Assay: MOLM-13 Cellular Assay
MOLM-13 cells were obtained from DSMZ and were maintained in RPMI 1640+Glutamax+25 mM HEPES (Invitrogen, catalog number 72400) supplemented with 10% heat inactivated fetal bovine serum (FBS; Invitrogen, catalog number 16140). The day prior to assay set-up, cells were pelleted, resuspended in fresh media, counted, and cells were plated at 0.4×10^6 cell/mL in a T150 flask. On the day of the assay, cells were pelleted, resuspend in fresh media, counted and seeded at 5,000 cells/well in white opaque 96-well tissue culture treated microplates (Perkin Elmer, catalog number 6005680). Cells were exposed to different concentrations of test compounds at 37° C., 5% CO2 for 72 hours immediately after seeding. Cell viability was acquired on a Perkin Elmer Envision 2104 multilabel reader using the CellTiter-Glo assay (Promega) according to the manufacturer's instructions.

[2] = molecular target: T1, human DHODH (Homo sapiens, UniProt Q02127); assay: DHODH enzymatic assay (DCIP absorbance, end-point); type: biochemical; details: purified human DHODH, DCIP as final electron acceptor, end-point mode; read-out: hDHODH IC50
T1 construct: purchased Proteros PR-0044
T1 sequence (Q02127 whole entry): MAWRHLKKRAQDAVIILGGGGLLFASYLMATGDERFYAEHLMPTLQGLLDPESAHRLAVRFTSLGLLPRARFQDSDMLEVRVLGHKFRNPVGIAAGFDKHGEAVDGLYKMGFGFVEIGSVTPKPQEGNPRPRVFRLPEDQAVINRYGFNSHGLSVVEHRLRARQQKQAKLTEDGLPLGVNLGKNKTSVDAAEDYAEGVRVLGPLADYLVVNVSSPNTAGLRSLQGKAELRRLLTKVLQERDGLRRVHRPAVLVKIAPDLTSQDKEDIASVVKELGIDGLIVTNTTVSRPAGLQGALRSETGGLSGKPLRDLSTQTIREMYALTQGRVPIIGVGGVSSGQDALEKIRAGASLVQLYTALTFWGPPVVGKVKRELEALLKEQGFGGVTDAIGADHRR
Protocol: In vitro Assay: DHODH enzymatic assay
To detect DHODH enzyme activities, dichloroindophenol (DCIP) is added as the final electron acceptor in the assay. DCIP can accept electrons from the reduced coenzyme Q generated in the assay, or from dihydroorotate (DHO) via FMN by binding presumably to the ubiquinone pocket. […] The assay buffer contained […], pH 7.5, 150 mM NaCl, 0.5 mM EDTA, and 0.1% Triton X-100 in MilliQ water. Substrate consisting of 20 mM DHO, 5 mM CoQ6, and 1 mM DCIP in assay buffer, initiates the reaction. […] Absorbance measurements were obtained using the BMG Phera Star plate-reading spectrophotometer. Purified human DHODH was purchased from Proteros (cat. No. PR-0044). Chemicals were purchased from Sigma-Aldrich, Teknova, and Avanti Polar Lipids. Liquid handling was performed using Labcyte Echo and Formulatrix Tempest.

C=C(C)[C@H]1CN(c2c(C)cc(C)nc2Cl)C(=O)c2cc(F)c(-n3nc(CO)n(CC)c3=O)cc21 (single isomer, unassigned; atropisomer 1) [Example 59, Atropisomer 1, (R *)-2-(2-Chloro-4,6-dimethylpyridin-3-yl)-6-(4-ethyl-3-(hydroxymethyl)-5-oxo-4,5-dihydro-1H-1,2,4-triazol-1-yl)-7-fluoro-4-(prop-1-en-2-yl)-3,4-dihydroisoquinolin-1(2H)-one]
IC50 [1]: 1860 nM
IC50 [2]: > 100 nM

C=C(C)[C@@H]1CN(c2c(C)cc(C)nc2Cl)C(=O)c2cc(F)c(-n3nc(CO)n(CC)c3=O)cc21 (single isomer, unassigned; atropisomer 1) [Example 60, Atropisomer 1, (S*)-2-(2-Chloro-4,6-dimethylpyridin-3-yl)-6-(4-ethyl-3-(hydroxymethyl)-5-oxo-4,5-dihydro-1H-1,2,4-triazol-1-yl)-7-fluoro-4-(prop-1-en-2-yl)-3,4-dihydroisoquinolin-1(2H)-one]
IC50 [1]: 26.8 nM
IC50 [2]: > 100 nM

C=C(C)[C@@H]1CN(c2c(C)cnc(OC)c2Cl)C(=O)c2cc(F)c(-n3nc(CO)n(CC)c3=O)cc21 (single isomer, unassigned; atropisomer 1) [Example 62, Atropisomer 1, (S*)-2-(3-Chloro-2-methoxy-5-methylpyridin-4-yl)-6-(4-ethyl-3-(hydroxymethyl)-5-oxo-4,5-dihydro-1H-1,2,4-triazol-1-yl)-7-fluoro-4-(prop-1-en-2-yl)-3,4-dihydroisoquinolin-1(2H)-one]
IC50 [1]: 0.793 nM
IC50 [2]: 2 nM

C=C(C)[C@H]1CN(c2c(C)cnc(OC)c2Cl)C(=O)c2cc(F)c(-n3nc(CO)n(CC)c3=O)cc21 (single isomer, unassigned; atropisomer 1) [Example 63, Atropisomer 1, (R *)-2-(3-Chloro-2-methoxy-5-methylpyridin-4-yl)-6-(4-ethyl-3-(hydroxymethyl)-5-oxo-4,5-dihydro-1H-1,2,4-triazol-1-yl)-7-fluoro-4-(prop-1-en-2-yl)-3,4-dihydroisoquinolin-1(2H)-one]
IC50 [1]: 359 nM
IC50 [2]: > 100 nM

C=C(C)[C@@H]1CN(c2c(C)cnc(OC)c2C)C(=O)c2cc(F)c(-n3nc(CO)n(CC)c3=O)cc21 (single isomer, unassigned; atropisomer 2) [Example 56, Atropisomer 2, (S*)-6-(4-Ethyl-3-(hydroxymethyl)-5-oxo-4,5-dihydro-1H-1,2,4-triazol-1-yl)-7-fluoro-2-(2-methoxy-3,5-dimethylpyridin-4-yl)-4-(prop-1-en-2-yl)-3,4-dihydroisoquinolin-1(2H)-one]
IC50 [1]: 101 nM
IC50 [2]: > 100 nM

C=C(C)[C@H]1CN(c2c(C)cnc(OC)c2C)C(=O)c2cc(F)c(-n3nc(CO)n(CC)c3=O)cc21 (single isomer, unassigned; atropisomer 2) [Example 57, Atropisomer 2, (R*)-6-(4-Ethyl-3-(hydroxymethyl)-5-oxo-4,5-dihydro-1H-1,2,4-triazol-1-yl)-7-fluoro-2-(2-methoxy-3,5-dimethylpyridin-4-yl)-4-(prop-1-en-2-yl)-3,4-dihydroisoquinolin-1(2H)-one]
IC50 [1]: 29.7 nM
IC50 [2]: > 100 nM

C=C(C)[C@H]1CN(c2c(C)cc(C)nc2Cl)C(=O)c2cc(F)c(-n3nc(CO)n(CC)c3=O)cc21 (single isomer, unassigned; atropisomer 2) [Example 61, Atropisomer 2, (R*)-2-(2-Chloro-4,6-dimethylpyridin-3-yl)-6-(4-ethyl-3-(hydroxymethyl)-5-oxo-4,5-dihydro-1H-1,2,4-triazol-1-yl)-7-fluoro-4-(prop-1-en-2-yl)-3,4-dihydroisoquinolin-1(2H)-one]
IC50 [1]: 114 nM
IC50 [2]: 90 nM

C=C(C)[C@@H]1CN(c2c(C)cnc(OC)c2Cl)C(=O)c2cc(F)c(-n3nc(CO)n(CC)c3=O)cc21 (single isomer, unassigned; atropisomer 2) [Example 64, Atropisomer 2, (S*)-2-(3-Chloro-2-methoxy-5-methylpyridin-4-yl)-6-(4-ethyl-3-(hydroxymethyl)-5-oxo-4,5-dihydro-1H-1,2,4-triazol-1-yl)-7-fluoro-4-(prop-1-en-2-yl)-3,4-dihydroisoquinolin-1(2H)-one]
IC50 [1]: 15.3 nM
IC50 [2]: 60 nM

C=C(C)[C@@H]1CN(c2ccccc2Cl)C(=O)c2cc(F)c(-n3nc(CO)n(CC)c3=O)cc21 (stereo in doubt) [Example 34]
IC50 ([1]; Homo sapiens, MOLM-13, 72 h): 1.06 nM
IC50 [2]: 0.9 nM

CCn1c(CO)nn(-c2cc3c(cc2F)C(=O)N(c2c(F)cccc2Cl)C(C)N3C(C)C)c1=O (centres unmarked) [Example 2, 3-(2-Chloro-6-fluorophenyl)-7-(4-ethyl-3-(hydroxymethyl)-5-oxo-4,5-dihydro-1H-1,2,4-triazol-1-yl)-6-fluoro-1-isopropyl-2-methyl-2,3-dihydroquinazolin-4(1H)-one]
IC50 ([1]; Homo sapiens, MOLM-13, 72 h): 8.4 nM
IC50 [2]: 35 nM

CCn1c(CO)nn(-c2cc3c(cc2F)C(=O)N(c2c(F)cccc2Cl)C(C)(C)N3C(C)C)c1=O [Example 3, 3-(2-Chloro-6-fluorophenyl)-7-(4-ethyl-3-(hydroxymethyl)-5-oxo-4,5-dihydro-1H-1,2,4-triazol-1-yl)-6-fluoro-1-isopropyl-2,2-dimethyl-2,3-dihydroquinazolin-4 (1H)-one]
IC50 ([1]; Homo sapiens, MOLM-13, 72 h): 440 nM
IC50 [2]: 1040 nM

CCn1c(CO)nn(-c2cc3c(cc2F)c(=O)n(-c2c(F)cccc2Cl)c(=O)n3C(C)C)c1=O [Example 4, 3-(2-Chloro-6-fluorophenyl)-7-(4-ethyl-3-(hydroxymethyl)-5-oxo-4,5-dihydro-1H-1,2,4-triazol-1-yl)-6-fluoro-1-isopropylquinazoline-2,4(1H,3H)-dione]
IC50 ([1]; Homo sapiens, MOLM-13, 72 h): 4.4 nM
IC50 [2]: 110 nM

CCn1c(CO)nn(-c2nc3c(cc2F)C(=O)N(c2c(F)cccc2Cl)CN3C(C)C)c1=O [Example 5, 3-(2-Chloro-6-fluorophenyl)-7-(4-ethyl-3-(hydroxymethyl)-5-oxo-4,5-dihydro-1H-1,2,4-triazol-1-yl)-6-fluoro-1-isopropyl-2,3-dihydropyrido[2,3-d]pyrimidin-4(1H)-one]
IC50 ([1]; Homo sapiens, MOLM-13, 72 h): 1.2 nM
IC50 [2]: 1.4 nM

CCn1c(CO)nn(-c2nc3c(cc2F)C(=O)N(c2c(F)cccc2Cl)CN3C2CCOCC2)c1=O [Example 6, 3-(2-Chloro-6-fluorophenyl)-7-(4-ethyl-3-(hydroxymethyl)-5-oxo-4,5-dihydro-1H-1,2,4-triazol-1-yl)-6-fluoro-1-(tetrahydro-2H-pyran-4-yl)-2,3-dihydropyrido[2,3-d]pyrimidin-4(1H)-one]
IC50 ([1]; Homo sapiens, MOLM-13, 72 h): 50 nM
IC50 [2]: 57 nM

CCn1c(CO)nn(-c2nc3c(cc2F)C(=O)N(c2c(F)cccc2Cl)CN3C2CCC2)c1=O [Example 7, 3-(2-chloro-6-fluorophenyl)-1-cyclobutyl-7-(4-ethyl-3-(hydroxymethyl)-5-oxo-4,5-dihydro-1H-1,2,4-triazol-1-yl)-6-fluoro-2,3-dihydropyrido[2,3-d]pyrimidin-4(1H)-one]
IC50 ([1]; Homo sapiens, MOLM-13, 72 h): 1.7 nM
IC50 [2]: 2.6 nM

CCn1c(CO)nn(-c2nc3c(cc2F)C(=O)N(c2c(F)cccc2Cl)CN3[C@@H](C)C(F)(F)F)c1=O [Example 8, (S)-3-(2-Chloro-6-fluorophenyl)-7-(4-ethyl-3-(hydroxymethyl)-5-oxo-4,5-dihydro-1H-1,2,4-triazol-1-yl)-6-fluoro-1-(1,1,1-trifluoropropan-2-yl)-2,3-dihydropyrido[2,3-d]pyrimidin-4(1H)-one]
IC50 ([1]; Homo sapiens, MOLM-13, 72 h): 1.7 nM
IC50 [2]: < 0.5 nM

CCn1c(CO)nn(-c2nc3c(cc2F)C(=O)N(c2c(F)cccc2Cl)CN3C2CC2)c1=O [Example 9, 3-(2-Chloro-6-fluorophenyl)-1-cyclopropyl-7-(4-ethyl-3-(hydroxymethyl)-5-oxo-4,5-dihydro-1H-1,2,4-triazol-1-yl)-6-fluoro-2,3-dihydropyrido[2,3-d]pyrimidin-4(1H)-one]
IC50 ([1]; Homo sapiens, MOLM-13, 72 h): 1.7 nM
IC50 [2]: 11 nM

CCC[C@H](C)N1CN(c2c(F)cccc2Cl)C(=O)c2cc(F)c(-n3nc(CO)n(CC)c3=O)cc21 [Example 15, (S)-3-(2-Chloro-6-fluorophenyl)-7-(4-ethyl-3-(hydroxymethyl)-5-oxo-4,5-dihydro-1H-1,2,4-triazol-1-yl)-6-fluoro-1-(pentan-2-yl)-2,3-dihydroquinazolin-4(1H)-one]
IC50 ([1]; Homo sapiens, MOLM-13, 72 h): < 1.69 nM
IC50 [2]: 0.3 nM

CC[C@H](C)N1CN(c2c(F)cccc2Cl)C(=O)c2cc(F)c(-n3nc(CO)n(CC)c3=O)cc21 [Example 16, (S)-1-(sec-Butyl)-3-(2-chloro-6-fluorophenyl)-7-(4-ethyl-3-(hydroxymethyl)-5-oxo-4,5-dihydro-1H-1,2,4-triazol-1-yl)-6-fluoro-2,3-dihydroquinazolin-4(1H)-one]
IC50 ([1]; Homo sapiens, MOLM-13, 72 h): < 1.69 nM
IC50 [2]: 0.3 nM
